Assay results as given in US10100064B2, “Purine inhibitors of human phosphatidylinositol 3-kinase delta” (Merck Sharp & Dohme Corp., priority 2014, dated 2018).

Key:
PI3Kdelta = molecular target: T1, PI3Kdelta (Homo sapiens, UniProt O00329); assay: HTRF PI3K biochemical assay, delta isoform; conditions: 0.3 nM enzyme, 100 uM ATP, 5 uM PIP2, form screened (Neutral or TFA salt) given per compound
T1 construct: purchased Upstate; Millipore 14-604
Source text: (§1) HTRF PI3K Biochemical Assay to Measure Intrinsic Potency of Compound Inhibitors
(§2) The PI3-Kinase biochemical assays were developed to measure the intrinsic potency and compound dependent inhibition of the alpha, beta, delta, and gamma PI3K isoform enzymes. This assay was developed and further optimized from a kit produced by Upstate (Millipore catalog #33-047) and has been configured for HTS and SAR screening. Briefly, this procedure exploits the exquisite specificity and high affinity binding of […] phosphatidyl(3,4,5)triphosphate (PIP3) to the GRP1 pleckstrin homology (PH) domain to generate the signal. In the absence of PIP3, an HTRF (Homogeneous Time-Resolved Fluorescence energy transfer) complex is formed consisting of europium (Eu)-labeled anti-GST, GSTtagged GRP1-PH domain, biotin-PIP3 and streptavidin conjugated APC. The native PIP3 produced by PI3-Kinase activity disrupts in a competitive manner the biotin-PIP3 from the PH domain, resulting in the loss of energy transfer (HTRF complex) and a decrease in the signal. The format of this assay is the same for all 4 isoforms of PI3K; the differences lie in the concentration of enzyme used to achieve robust assay window. The alpha, beta, and delta assays are run at 0.5, 1, and 0.3 nM enzymes and the gamma assay is run at 5 nM enzyme. The ATP concentration is 100 uM in the alpha, beta, and delta assays and 50 uM ATP in the gamma assay. All reactions are run at 5 uM PIP2.
(§3) Compounds are serially diluted (3-fold in 100% DMSO) across a 384-well polypropylene source plated from column 3 to column 12 and column 13 to column 22, to yield 10 concentration dose response for each test compound. Columns 1, 2, 23 and 24 contain either only DMSO or pharmacological known control inhibitor. Once titrations are made, 2.5 nL of the compounds on 384 well plates are reformatted and transferred by acoustic dispense in quadruplicates to a 1536 assay plate (Greiner) to assay across all four PI3K isoform enzymes.
(§4) The PI3-Kinase biochemical assay was optimized using the HTRF kit provided by Upstate (Millipore). The assay kit contains six reagents: 1) 4× Reaction Buffer; 2) native PIP2 (substrate); 3) Stop (EDTA); 4) Detection Mix A (Streptavidin-APC); 5) Detection Mix B (Eu-labeled Anti-GST plus GST-tagged PH-domain); 6) Detection Mix C. In addition, the following items were obtained or purchased; PI3Kinase (alpha 14-602, beta 14-603, gamma 14-558 and delta 14-604 from Upstate; Millipore), dithiothreitol (Sigma, D-5545), Adenosine-5′ triphosphate (InVitrogen, Cat#AS001A), native PIP3 (PI(3,4,5)P3, diC8, H^+, CELLSIGNALS, INC. Cat #907) DMSO (Sigma, 472301).
(§5) PI3Kinase Reaction Buffer is prepared by dilution the stock 1:4 with de-ionized water. DTT, PIP2 and Biotin-PIP3 were added to 1536 assay plate at a final concentration of 5 mM, […] 25 nM on the day of use. Enzyme addition and compound pre-incubation are initiated by the addition of 1.25 ul of PI3K (at twice its final concentration) in the 1× reaction buffer to all wells using a BioRaptor. Plates are incubated at room temperature for 15 minutes. Reactions are initiated by addition of 1.25 ul of 2× substrate solution (PIP2 and ATP in 1× reaction buffer) using BioRaptor. Plates are incubated in humidified chamber at room temperature for one hour. Reactions are quenched by addition of 0.625 uL of stop solution to all wells using the BioRaptor. The quenched reactions are then processed to detect product formation by adding 0.625 uL of Detection Solution to all wells using the BioRaptor (Detection mix C, Detection Mix A, and Detection Mix B combined together in an 18:1:1 ratio prepared 2 hours prior to use). Following a one hour incubation in the dark, the HTRF signal is measured on the Envision plate reader set for 330 nm excitation and dual emission detection at […]. […]

PI3Kalpha = molecular target: T2, PI3Kalpha (Homo sapiens, UniProt P42336); assay: HTRF PI3K biochemical assay, alpha isoform (selectivity versus delta); conditions: relative ratio PI3K-alpha IC50 value / PI3K-delta IC50 value
T2 construct: purchased Upstate; Millipore 14-602
T2 sequence (P42336 whole entry, canonical isoform): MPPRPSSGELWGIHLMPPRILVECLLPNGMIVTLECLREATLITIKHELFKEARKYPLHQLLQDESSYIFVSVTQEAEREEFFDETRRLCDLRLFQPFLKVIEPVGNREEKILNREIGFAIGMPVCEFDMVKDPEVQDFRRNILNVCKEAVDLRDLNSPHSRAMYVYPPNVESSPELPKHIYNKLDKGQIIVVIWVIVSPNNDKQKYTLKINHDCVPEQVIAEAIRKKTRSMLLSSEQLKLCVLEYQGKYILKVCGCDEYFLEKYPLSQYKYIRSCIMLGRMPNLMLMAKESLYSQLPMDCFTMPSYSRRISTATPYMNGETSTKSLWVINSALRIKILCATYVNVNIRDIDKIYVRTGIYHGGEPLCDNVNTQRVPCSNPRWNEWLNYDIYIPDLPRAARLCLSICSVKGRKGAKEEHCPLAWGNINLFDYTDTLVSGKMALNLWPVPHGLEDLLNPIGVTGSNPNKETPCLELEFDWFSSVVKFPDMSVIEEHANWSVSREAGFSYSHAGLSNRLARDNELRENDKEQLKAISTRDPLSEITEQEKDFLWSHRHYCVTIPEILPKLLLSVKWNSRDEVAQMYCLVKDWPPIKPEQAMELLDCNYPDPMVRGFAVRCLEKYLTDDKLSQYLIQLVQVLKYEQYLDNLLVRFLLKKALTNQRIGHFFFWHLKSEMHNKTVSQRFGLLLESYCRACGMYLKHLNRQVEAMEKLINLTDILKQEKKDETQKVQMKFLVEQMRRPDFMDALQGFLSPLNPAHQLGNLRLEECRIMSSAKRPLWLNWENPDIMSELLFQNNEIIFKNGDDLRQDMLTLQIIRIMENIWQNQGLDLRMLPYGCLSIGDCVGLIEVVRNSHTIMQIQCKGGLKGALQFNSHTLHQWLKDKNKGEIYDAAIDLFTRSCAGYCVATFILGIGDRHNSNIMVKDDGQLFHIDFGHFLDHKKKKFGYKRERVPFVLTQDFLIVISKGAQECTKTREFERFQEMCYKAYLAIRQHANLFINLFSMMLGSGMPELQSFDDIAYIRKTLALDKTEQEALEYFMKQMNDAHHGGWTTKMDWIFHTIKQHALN
T2 sequence (P27986 whole entry partner, canonical isoform): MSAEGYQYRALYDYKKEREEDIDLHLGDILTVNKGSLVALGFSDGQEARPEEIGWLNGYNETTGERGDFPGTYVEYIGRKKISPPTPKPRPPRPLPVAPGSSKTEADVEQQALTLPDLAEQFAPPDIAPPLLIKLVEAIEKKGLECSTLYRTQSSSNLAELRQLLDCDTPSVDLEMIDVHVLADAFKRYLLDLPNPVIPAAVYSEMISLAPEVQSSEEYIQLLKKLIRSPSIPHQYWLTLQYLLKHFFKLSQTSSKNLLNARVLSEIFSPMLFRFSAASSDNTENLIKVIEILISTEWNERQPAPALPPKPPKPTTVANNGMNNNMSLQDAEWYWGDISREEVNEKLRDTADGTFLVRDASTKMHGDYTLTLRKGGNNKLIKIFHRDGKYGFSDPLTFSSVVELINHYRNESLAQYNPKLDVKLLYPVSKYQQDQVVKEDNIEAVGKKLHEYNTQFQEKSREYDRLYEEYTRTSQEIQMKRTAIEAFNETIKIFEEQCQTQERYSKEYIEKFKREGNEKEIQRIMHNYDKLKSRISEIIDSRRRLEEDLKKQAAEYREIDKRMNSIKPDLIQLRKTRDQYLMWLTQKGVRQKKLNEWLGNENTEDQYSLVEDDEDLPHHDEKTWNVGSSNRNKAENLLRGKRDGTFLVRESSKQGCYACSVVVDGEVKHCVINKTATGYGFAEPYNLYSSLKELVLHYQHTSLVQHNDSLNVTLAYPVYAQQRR
Source text: as §1, §2, §3, §4, §5

T1 sequence (O00329 whole entry, canonical isoform): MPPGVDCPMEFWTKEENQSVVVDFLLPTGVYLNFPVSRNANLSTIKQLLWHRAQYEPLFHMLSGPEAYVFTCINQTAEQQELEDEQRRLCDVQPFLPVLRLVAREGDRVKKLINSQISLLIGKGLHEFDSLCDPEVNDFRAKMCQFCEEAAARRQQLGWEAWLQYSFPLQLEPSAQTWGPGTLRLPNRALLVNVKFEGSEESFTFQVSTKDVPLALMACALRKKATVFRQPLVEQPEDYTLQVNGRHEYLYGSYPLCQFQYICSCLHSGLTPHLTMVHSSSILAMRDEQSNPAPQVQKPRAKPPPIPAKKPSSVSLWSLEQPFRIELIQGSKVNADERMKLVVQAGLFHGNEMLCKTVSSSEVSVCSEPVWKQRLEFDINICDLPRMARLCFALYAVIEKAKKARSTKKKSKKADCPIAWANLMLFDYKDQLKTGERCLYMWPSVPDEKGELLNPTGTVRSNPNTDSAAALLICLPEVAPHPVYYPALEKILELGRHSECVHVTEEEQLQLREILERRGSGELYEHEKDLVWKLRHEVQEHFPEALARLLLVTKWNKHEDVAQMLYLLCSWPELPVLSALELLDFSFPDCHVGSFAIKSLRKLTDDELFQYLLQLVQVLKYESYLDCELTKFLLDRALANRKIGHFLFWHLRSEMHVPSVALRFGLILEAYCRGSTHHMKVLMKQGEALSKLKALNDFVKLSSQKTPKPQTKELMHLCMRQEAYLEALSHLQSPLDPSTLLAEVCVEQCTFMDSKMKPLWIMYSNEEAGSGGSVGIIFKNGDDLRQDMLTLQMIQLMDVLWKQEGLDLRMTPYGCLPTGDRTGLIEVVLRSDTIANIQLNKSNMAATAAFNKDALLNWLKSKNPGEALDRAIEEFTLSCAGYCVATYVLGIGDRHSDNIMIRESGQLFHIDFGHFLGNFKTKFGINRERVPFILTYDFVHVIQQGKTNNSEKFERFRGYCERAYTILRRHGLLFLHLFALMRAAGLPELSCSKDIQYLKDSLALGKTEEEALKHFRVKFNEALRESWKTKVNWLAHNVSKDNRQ
T1 sequence (P27986 whole entry partner, canonical isoform): as the sequence (P27986 whole entry partner, canonical isoform) above

Compound | IC50 (PI3Kdelta) | Selectivity versus PI3Kalpha (PI3Kalpha)
CCn1c(-c2ccc(C(F)(F)F)nc2)nc2c(NC3CCc4nnc(C(C)C)n4C3)ncnc21 (single isomer, unassigned) [Compound 1-18, (S or R)-9-ethyl-N-[3-(1-methylethyl)-5,6,7,8-tetrahydro[1,2,4]triazolo[4,3-a]pyridin-6-yl]-8-[6-(trifluoromethyl)pyridin-3-yl]-9H-purin-6-amine] | < 0.001 µM | >10
CCn1c(-c2ccc(C(F)(F)F)nc2)nc2c(NC3CCc4nnc(C(C)C)n4C3)ncnc21 (single isomer, unassigned) [Compound 1-19, (S or R)-9-ethyl-N-[3-(1-methylethyl)-5,6,7,8-tetrahydro[1,2,4]triazolo[4,3-a]pyridin-6-yl]-8-(6-(trifluoromethyl)pyridin-3-yl]-9H-purin-6-amine] | 0.031 µM | >10
CCn1c(-c2ccc(C(F)(F)F)cc2)nc2c(NC3CCc4nnc(C(C)C)n4C3)ncnc21 (single isomer, unassigned) [Compound 1-20, (S or R)-9-ethyl-N-[(6S)-3-(1-methylethyl)-5,6,7,8-tetrahydro[1,2,4]triazolo[4,3-a]pyridin-6-yl]-8-[4-(trifluoromethyl)phenyl]-9H-purin-6-amine] | < 0.001 µM | >10
CCn1c(-c2cnc(OC)c(F)c2)nc2c(NC3CCc4nnc(C(C)C)n4C3)ncnc21 (single isomer, unassigned) [Compound 1-21, (S or R)-9-ethyl-8-(5-fluoro-6-methoxypyridin-3-yl)-N-[3-(1-methylethyl)-5,6,7,8-tetrahydro[1,2,4]triazolo[4,3-a]pyridin-6-yl]-9H-purin-6-amine] | < 0.001 µM | >10
CCn1c(-c2cnc(OC)c(Cl)c2)nc2c(NC3CCc4nnc(C(C)C)n4C3)ncnc21 (single isomer, unassigned) [Compound 1-22, (S or R)-8-(5-chloro-6-methoxypyridin-3-yl)-9-ethyl-N-[3-(1-methylethyl)-5,6,7,8-tetrahydro[1,2,4]triazolo[4,3-a]pyridin-6-yl]-9H-purin-6-amine] | 0.221 µM | >10
CCn1c(-c2cnn(-c3ccccc3)c2)nc2c(NC3CCc4nnc(C(C)C)n4C3)ncnc21 (single isomer, unassigned) [Compound 1-23, (S or R)-9-ethyl-N-[3-(1-mtthylethyl)-5,6,7,8-tetrahydro[1,2,4]triazolo[4,3-a]pyridin-6-yl]-8-(1-phenyl-1H-pyrazol-4-yl)-9H-purin-6-amine] | < 0.001 µM | >10
CCn1c(-c2ccc(C(F)F)cc2)nc2c(NC3CCc4nnc(C(C)C)n4C3)ncnc21 (single isomer, unassigned) [Compound 1-24, 8-[4-(difluoromethyl)phenyl]-9-ethyl-N-[(6(S or R))-3-(1-methylethyl)-5,6,7,8-tetrahydro[1,2,4]triazolo[4,3-a]pyridin-6-yl]-9H-purin-6-amine] | 0.0035 µM | >10
CCn1c(-n2cnc(C(F)(F)F)c2)nc2c(NC3CCc4nnc(C(C)C)n4C3)ncnc21 (single isomer, unassigned) [Compound 1-25, 9-ethyl-N-[(6(S or R))-3-(1-methylethyl)-5,6,7,8-tetrahydro[1,2,4]triazolo[4,3-a]pyridin-6-yl]-8-[4-(trifluoromethyl)-1H-imidazol-1-yl]-9H-purin-6-amine] | 0.024 µM | >10
CCn1c(I)nc2c(NC3CCc4nnc(C5CC5)n4C3)ncnc21 (single isomer, unassigned) [Compound 1-26, (S or R)-N-[3-cyclopropyl-5,6,7,8-tetrahydro[1,2,4]triazolo[4,3-a]pyridin-6-yl]-9-ethyl-8-iodo-9H-purin-6-amine] | 0.012 µM | >10
